Read-outs that look alike come from different tables or passages of the source. Where a SMILES comes first, the peptide text is derived from it. Where no end group is shown, it is not given here. [ ]: non-standard residue; d: D form. dOrn = NCCC[C@@H](N)C(=O)O; Orn = NCCC[C@H](N)C(=O)O Where only a bound is given, the exact number is not on record here.

The source of these data is patent US20110144014A1, “CYTOKINE RECEPTOR MODULATORS AND USES THEREOF” (CENTRE HOSPITALIER UNIVERSITAIRE SAINTE-JUSTINE, priority 2005, published 2011).

One assay has as its target T1, IL-1R/IL-1RacP (Homo sapiens, UniProt P14778+Q9NPH3).
T1 construct: TF-1 cells; endogenous in cells; host or cells: TF-1
T1 sequence (P14778 18-569): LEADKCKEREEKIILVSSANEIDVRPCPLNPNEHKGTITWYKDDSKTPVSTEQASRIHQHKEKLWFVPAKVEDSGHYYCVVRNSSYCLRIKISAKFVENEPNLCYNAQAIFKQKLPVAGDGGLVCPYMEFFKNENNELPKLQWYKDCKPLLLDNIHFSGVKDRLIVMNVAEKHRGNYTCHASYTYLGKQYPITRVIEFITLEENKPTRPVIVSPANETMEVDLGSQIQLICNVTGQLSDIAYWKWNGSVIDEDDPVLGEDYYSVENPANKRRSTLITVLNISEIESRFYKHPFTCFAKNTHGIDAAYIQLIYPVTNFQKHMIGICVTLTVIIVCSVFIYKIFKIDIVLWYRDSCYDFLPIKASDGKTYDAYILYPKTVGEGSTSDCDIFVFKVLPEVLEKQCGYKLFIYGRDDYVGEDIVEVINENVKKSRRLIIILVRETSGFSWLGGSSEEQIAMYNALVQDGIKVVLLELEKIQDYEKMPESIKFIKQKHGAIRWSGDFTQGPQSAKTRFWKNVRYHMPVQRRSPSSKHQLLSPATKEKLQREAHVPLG
T1 sequence (Q9NPH3 21-570): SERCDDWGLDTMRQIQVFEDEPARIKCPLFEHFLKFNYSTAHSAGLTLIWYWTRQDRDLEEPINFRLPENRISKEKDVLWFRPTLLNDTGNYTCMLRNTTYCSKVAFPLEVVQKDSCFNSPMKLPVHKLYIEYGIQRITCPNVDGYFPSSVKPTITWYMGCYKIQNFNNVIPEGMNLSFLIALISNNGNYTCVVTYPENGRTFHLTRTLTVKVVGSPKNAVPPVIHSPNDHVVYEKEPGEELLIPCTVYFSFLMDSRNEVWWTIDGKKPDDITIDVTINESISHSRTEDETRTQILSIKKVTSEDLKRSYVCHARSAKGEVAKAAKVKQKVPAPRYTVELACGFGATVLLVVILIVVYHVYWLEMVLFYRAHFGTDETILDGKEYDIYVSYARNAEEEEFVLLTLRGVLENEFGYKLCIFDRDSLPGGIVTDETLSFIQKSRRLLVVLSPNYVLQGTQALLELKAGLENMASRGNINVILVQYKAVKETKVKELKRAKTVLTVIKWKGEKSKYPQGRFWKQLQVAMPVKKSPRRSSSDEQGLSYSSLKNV
Description: IL-1β-induced proliferation in TF-1 cells. The assay is classed as cell-based. The note with it: for activity relative to 101.113: Table 11.

Assay [1] has as its system TNBS-induced colon inflammation. The assay is described as follows: TNBS rat model of inflammatory bowel disease. Type of assay: in vivo. The procedure: Colon inflammation was induced by intra-rectal/colon administration of the hapten trinitrobenzene sulphonic acid (TNBS) on male Sprague-Dawley rats (175-200 g) (Bouma, Nature Rev, 2003; Morris, Gastroenterology, 1989). Animals were anesthetized with isoflurane and TNBS dissolved in 50% ethanol (vol/vol). 120 mg/ml (TNBS) was administered into the colon (total volume of 0.25 ml per rat) using a polyethylene tube (PE50). The cannula was inserted at 8 cm from the anus and kept in place for at least 15 minutes after TNBS administration in order to prevent expulsion of the solution. Two hours prior to TNBS administration, the API-101 derivative API-101.10 (1.1 mg/kg) or 0.9% saline was administered intravenously via the caudal vein (total volume of 0.3 ml). […] A third group (control) was not injected with TNBS. Six days after administration of TNBS, rats were killed by CO2 inhalation. Day 6 was chosen as an endpoint because by day 7 spontaneous tissue regeneration begins and this can mask the therapeutic effect of the tested peptide or peptide derivative. Colon was removed and examined macroscopically (adhesions, ulcerations, discoloration and bleeding) and histologically (neutrophil infiltration, epithelial injury, crypt distortion and ulcerations) (Anthony et al., Int. J. Exp. Path. 76:215-224, 1995; Padol et al., Eur. J. of Gastroenterol. Hepatol. 12:257-265, 2000; Dieleman et al., […], 1997; Torres et al., Digestive Diseases and Sciences 44:2523-2529, 1999). Two animals per group were studied.
Histological transversal sections were cut at 4-6 cm from the proximal anal region and colored with the hematoxylin/eosin method. The TNBS model of inflammatory bowel disease reproduces the inflammatory characteristics and tissue injuries of Crohn's disease (e.g., in humans). Morphologically, the colon of the animals injected with TNBS presented thickening, edema, and discoloration of the intestinal wall indicating a significant inflammation. […] Histological features consisted of neutrophil infiltration into the epithelial layer and crypts, epithelial lining injury as well as the loss of crypts. […] The organization and integrity of the crypts in the API-101.10-treated colon is conserved even if there is still some inflammation (half the dose of API-101.10 was used as compared to the macroscopic analysis experiment).
Colon inflammation was induced by intra-rectal/colon administration of the hapten trinitrobenzene sulphonic acid (TNBS) as described above. Two hours prior to TNBS administration, peptides, peptidomimetics or 0.9% saline were administered intravenously (iv) via the caudal vein (various concentrations of mg/kg/d) (total volume of 0.3 ml). […] A third group (control) was not injected with TNBS. For intermittent administration, fifteen minutes after TNBS administration, 101.10 (0.25-1 mg/kg), 101.107 (0.2 mg/kg), 101.113 (0.05-1 mg/kg) were administered by intermittent intraperitoneal injection (ip). Also, these IL-1R antagonists were given twice a day (BID); Remicade® (anti-TNFα) (10 mg/kg) and dexamethasone (0.75 mg/kg) were administered intraperitoneally but only once a day (qd). The intrarectal administration (ir) of 101.10, 101.113 (1 and 2.5 mg/kg), and 5-ASA (50 mg/kg) was done one hour after TNBS administration, and twice a day, except for 5-ASA which is once a day. Finally, 101.10 (1-5 mg/kg) was also administered orally by gavage (po), twice a day. Forty-eight hours after administration of TNBS, rats were killed by CO2 inhalation. The colon was removed and assessed macroscopically (adhesions, ulcerations, discoloration and bleeding) and histologically (neutrophil infiltration, epithelial injury, crypt distortion and ulcerations). One to seven animals per group were studied, according to treatments. Myeloperoxidase (MPO) activity was measured on tissue lysates.

A further assay has as its target IGF-1R (Homo sapiens, UniProt P08069). The assay is described as follows: IGF-1 induced proliferation of MCF-7 breast carcinoma cells (3H-thymidine). The arrangement: MCF-7 breast carcinoma cells; endogenous in cells; host or cells: MCF-7. The assay is classed as cell-based. The note with it: MCF7; MCF-7 (breast cancer) cells; Table 5; read-out: Emax. The procedure: We also tested the effect IGF-1R antagonist peptides on IGF-1 induced proliferation in other cancer cell types (MCF-7 breast carcinoma cells, HepG2 hepatocarcinoma cells, and MDA-MB-231 breast adenocarcinoma cells). Different cancer cells were pre-incubated (45 min.) with different concentrations of peptides prior to stimulation with IGF-1 (50 ng/ml) (37° C.) for 24 hours; fetal calf serum was omitted 24 hours prior to stimulation with IGF-1 to avoid proliferative effects by other mitotic agents. ^3H-thymidine (1 μCi/ml) was then added for 24 hours, after which cells were washed three times with 5% cold TCA and lysed with 0.1N NaOH/0.1% Triton X-100. Radioactivity was measured with a scintillation counter. Experiments were repeated 3 times in duplicates (FIG. 15). […]

Where [2] appears, read: TF-1, IL-1β-induced, Table 10, read-out: Emax (%), proliferation in TF-1 cells (human).
Where [3] appears, read: TF-1, Table 11, read-out: Emax (%), IL-1β-induced TF-1 proliferation.
Where [4] appears, read: intermittent injection (ip), 0.75-qd mg/kg/d.
Where [5] appears, read: intrarectal administration, 50.0-qd mg/kg/d.
Setting [6] is: continuous infusion (ip), 8.0 mg/kg/d.
Where [7] appears, read: intermittent injection (ip), 10.0-qd mg/kg/d.

Sequence of IGF-1R (P08069 31-736 limits assumed): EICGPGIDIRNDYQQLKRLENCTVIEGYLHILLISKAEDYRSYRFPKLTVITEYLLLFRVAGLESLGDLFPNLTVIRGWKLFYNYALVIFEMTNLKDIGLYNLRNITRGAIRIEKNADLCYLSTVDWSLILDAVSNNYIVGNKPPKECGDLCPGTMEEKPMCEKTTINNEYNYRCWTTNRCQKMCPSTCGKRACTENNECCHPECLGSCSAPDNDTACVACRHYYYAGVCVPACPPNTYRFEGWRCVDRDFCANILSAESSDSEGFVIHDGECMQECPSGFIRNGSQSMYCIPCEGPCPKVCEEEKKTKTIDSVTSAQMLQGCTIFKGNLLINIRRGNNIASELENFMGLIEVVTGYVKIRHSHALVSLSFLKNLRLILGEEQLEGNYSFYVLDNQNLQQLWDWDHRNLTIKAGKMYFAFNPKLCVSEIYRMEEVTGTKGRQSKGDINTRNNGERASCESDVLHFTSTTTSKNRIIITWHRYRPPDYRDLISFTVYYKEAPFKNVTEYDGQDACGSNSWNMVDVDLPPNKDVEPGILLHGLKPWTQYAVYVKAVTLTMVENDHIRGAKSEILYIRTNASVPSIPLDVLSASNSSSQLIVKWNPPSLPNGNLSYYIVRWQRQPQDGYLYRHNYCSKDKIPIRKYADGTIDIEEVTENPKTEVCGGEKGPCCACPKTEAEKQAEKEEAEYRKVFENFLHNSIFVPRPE
Sequence of IGF-1R (P08069 741-1367 limits assumed): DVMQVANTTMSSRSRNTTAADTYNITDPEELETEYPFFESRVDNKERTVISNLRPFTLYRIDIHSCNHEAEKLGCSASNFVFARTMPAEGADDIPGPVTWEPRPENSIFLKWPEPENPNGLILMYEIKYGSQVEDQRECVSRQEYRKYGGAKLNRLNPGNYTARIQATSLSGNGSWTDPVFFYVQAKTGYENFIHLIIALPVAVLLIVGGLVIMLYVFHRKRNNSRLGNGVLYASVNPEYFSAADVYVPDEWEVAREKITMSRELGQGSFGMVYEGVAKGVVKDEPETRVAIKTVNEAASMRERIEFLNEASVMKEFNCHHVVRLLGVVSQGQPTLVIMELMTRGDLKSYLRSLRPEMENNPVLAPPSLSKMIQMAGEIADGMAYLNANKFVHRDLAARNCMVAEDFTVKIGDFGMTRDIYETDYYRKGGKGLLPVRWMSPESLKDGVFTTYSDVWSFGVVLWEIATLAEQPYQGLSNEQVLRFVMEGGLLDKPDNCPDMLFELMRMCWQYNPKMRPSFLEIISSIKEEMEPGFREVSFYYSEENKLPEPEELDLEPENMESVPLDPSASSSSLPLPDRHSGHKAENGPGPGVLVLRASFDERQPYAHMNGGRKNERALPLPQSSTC

Regarding `CC(C)C[C@@H](NC(=O)[C@@H](CCC(=O)O)NC(=O)[C@H]1CCCN1C(=O)[C@H](NC(=O)[C@@H](Cc1ccc(O)cc1)NC(=O)[C@H](N)CCCNC(=N)N)[C@H](C)O)C(=O)O` [API-101.113, RYTPEL], the Emax at IL-1R/IL-1RacP (setting [2]) came out at 100%.

On to `CC(C)C[C@@H](NC(=O)[C@@H](CCC(=O)O)NC(=O)[C@H]1CCCN1C(=O)[C@H](NC(=O)[C@@H](Cc1ccc(O)cc1)NC(=O)[C@H](N)CCCN)[C@H](C)O)C(=O)N[C@H](C)C(=O)O` [API-101.115, XYTPELA (X = Ornithine)] (H-[dOrn][dY][dT][dP][dE][dL][dA]-OH), for which the Emax on IL-1R/IL-1RacP (setting [2]) is 100%.

On to `CC(C)C[C@@H](NC(=O)[C@@H](CCC(=O)O)NC(=O)[C@H]1CCCN1C(=O)[C@H](NC(=O)[C@@H](Cc1c[nH]c2ccccc12)NC(=O)[C@H](N)CCCNC(=N)N)[C@H](C)O)C(=O)N[C@H](C)C(=O)O` [API-101.116, RWTPELA], for which the Emax at IL-1R/IL-1RacP (setting [2]) was found to be 75%.

As to `CC(C)C[C@H](NC(=O)[C@H](CCC(=O)O)NC(=O)[C@@H]1CCCN1C(=O)[C@@H](NC(=O)[C@H](Cc1ccc(O)cc1)NC(=O)[C@@H](N)CCCN)[C@@H](C)O)C(=O)O` [API-101.126, XYTPEL (X = Ornithine)] (H-[Orn]YTPEL-OH), the Emax at IL-1R/IL-1RacP (setting [3]) was determined as 0%.

For `CC(C)C[C@@H](NC(=O)[C@@H](CCC(=O)O)NC(=O)[C@H]1CCCN1C(=O)[C@H](NC(=O)[C@@H](Cc1c[nH]c2ccccc12)NC(=O)[C@H](N)CCCNC(=N)N)[C@H](C)O)C(=O)O` [API-101.128, RWTPEL] (H-[dR][dW][dT][dP][dE][dL]-OH; N-terminus and C-terminus assumed), the Emax on IL-1R/IL-1RacP (setting [3]) came to 100%. Moreover, on IL-1R/IL-1RacP, the “activity relative to 101.113” value is “relatively decreased”.

As for `CC(C)C[C@@H](NC(=O)[C@@H](CCC(=O)O)NC(=O)[C@H]1CCCN1C(=O)[C@H](NC(=O)[C@@H](Cc1ccccc1)NC(=O)[C@H](N)CCCNC(=N)N)[C@H](C)O)C(=O)O` [API-101.132, RFTPEL] (H-[dR][dF][dT][dP][dE][dL]-OH; N-terminus and C-terminus assumed), the Emax on IL-1R/IL-1RacP (setting [3]) turned out to be 35%. Moreover, on IL-1R/IL-1RacP, the “activity relative to 101.113” value is “relatively decreased”.

As for `CC(C)C[C@@H](NC(=O)[C@@H](CCC(=O)O)NC(=O)[C@H]1CCCN1C(=O)[C@H](NC(=O)[C@@H](Cc1ccc(O)cc1)NC(=O)[C@H](N)CCCNC(N)=O)[C@H](C)O)C(=O)O` [API-101.134, XYTPEL (X = Citrulline)], on IL-1R/IL-1RacP (setting [3]), the Emax is 10%. For the same compound, the “activity relative to 101.113” value on IL-1R/IL-1RacP is reported as “little or no activity”.

As for `CC(C)C[C@@H](NC(=O)[C@@H](CCC(=O)O)NC(=O)[C@H]1CCCN1C(=O)[C@H](NC(=O)[C@@H](Cc1ccc(O)cc1)NC(=O)[C@@H](N)CCCNC(=N)N)[C@H](C)O)C(=O)O` [API-101.135, *RYTPEL], on IL-1R/IL-1RacP (setting [3]), the Emax is 63%.

`C[C@@H]1C[C@H]2[C@@H]3CCC4=CC(=O)C=C[C@]4(C)[C@@]3(F)[C@@H](O)C[C@]2(C)[C@@]1(O)C(=O)CO` [Dexamethasone, dexamethasone, reference compound]: in assay [1] (setting [4]), the “Histologic evaluation (median score)” value is on record as 3 (Medium ulcer (5-10 crypts)), the “MPO (% of TNBS + Saline)” value is 60 % of TNBS + Saline and the “Macroscopic evaluation (median score)” value is recorded as 0.87 median score.

As to `Nc1ccc(O)c(C(=O)O)c1` [Peptide 5-ASA, 5-ASA, reference compound], in assay [1] (setting [5]), the “Histologic evaluation (median score)” value is on record as 3.3 median score, the “MPO (% of TNBS + Saline)” value is 49 % of TNBS + Saline and the “Macroscopic evaluation (median score)” value amounted to 1.5 median score.

As for KYTPEL [API-101.133, KYTPEL], the Emax on IL-1R/IL-1RacP (setting [3]) is less than 10%.

As to “Kineret: Amgen drug, a selective blocker of IL-1; commercial analog of IL-1R antagonist (IL-Ra) [reference compound]”, in assay [1] (setting [6]), the “Histologic evaluation (median score)” value is recorded as 2 (Small ulcer (<5 crypts)) and the “MPO (% of TNBS + Saline)” value is reported as 63 % of TNBS + Saline.

In the case of RFVPELA [API-101.127, RFVPELA], at IL-1R/IL-1RacP (setting [3]), the Emax is less than 30%.

Take RTVLSNL [APG-206.8, RTVLSNL]: on IGF-1R, the Emax was 100%.

As for “Remicade ®: anti-TNFα [reference compound]”, in assay [1] (setting [7]), the “Histologic evaluation (median score)” value worked out at 2.5 median score, the “MPO (% of TNBS + Saline)” value was 88 ± 41 % of TNBS + Saline and the “Macroscopic evaluation (median score)” value was determined as 0.5 median score.
